# Key:
# Ts65Dn mice [1] = experiment: Short-term sequential object recognition, Down syndrome model; format: in vivo, mouse; conditions: 0.6 μg/ml in drinking water, 2 months, delays 5 and 35 min
# Experimental: Mice were allowed to explore 3 different objects (A, B, C) presented one after the other and following one of the two possible sequences: A-C-C-B-A and A-B-C-C-A. In an open field, mice were exposed to object A for 5 min and then placed back into their home cage. After a delay of 5 minutes, mice were exposed to object B or C for 5 min and then placed back into their home cage, and so on. Consequently, the retention delay between two presentations of object C was of 5 minutes whereas the retention delay between two presentations of object A was of 35 minutes. The time spent exploring object A or C at the first presentation was compared with the time exploring the same object at the second presentation. This parameter is used to evaluate object recognition performances.
# Before the object recognition procedure, mice were tested in the radial maze.
# [2] = Spontaneous behaviors in the home cage (video analysis); format: in vivo, mouse; conditions: 30 mg/kg per os; 24 hours video analysis
# Ts65Dn mice [3] = experiment: Working memory (radial maze), Down syndrome model; format: in vivo, mouse; conditions: 0.06 μg/ml in drinking water
# Experimental: The working memory task was performed using 8-arm radial mazes described in Example 3a. Food restriction and habituation procedure were performed as described in Example 3a. The working memory procedure began 24 h after the last habituation session. Each mouse was submitted to 15 daily learning sessions (5 blocks of 3 days) made of 23 trials each. Six arms out of eight were used during the working memory test (3 pairs (A, B or C) of adjacent arms).
# At the beginning of each daily session, the mouse was placed at the center of the maze with no access to the arms. The doors of the first pair of arms then opened giving access to both arms of the pair. Once the mouse had visited one of the arms and goes back to the central platform, the door closed, and the animal was confined in the central platform for 10 sec (inter-trial interval, ITI) before two doors opened again giving access to a pair of arms. Once the animal had visited one of the arms and returns to the central platform the doors close again for 10 sec before the next trial. Within each session, the mouse was submitted to repeated and successive presentations of the 3 pairs of arms one at a time. At the first presentation of each arm pair the food reward was present in both arms. […]
# [4] = tested on: primary culture of rat hepatocytes; experiment: Hepatotoxicity in primary culture of hepatocytes; format: cell-based; conditions: 0.1 to 100 μM; 48 hours
# Experimental: The percentage of cytolysed hepatocytes over time was determined by time lapse imaging with a fluorescent cytolysis marker. The number of bile canaliculi after 48 hours of treatment was determined using a fluorescent bile salt analog.
# Primary rat hepatocytes from 10-12 weeks old Wistar rats were isolated using a two-step collagenase perfusion method. After 24 hours, cells were covered with a layer of Matrigel to perform a sandwich configuration culture. […] Cells were then stained using a fluorescent bile salt analog to measure the bile canaliculi network state and the Bsep pump activity. Acetaminophen (30 mM) and Cyclosporin A (1 μM) were added as positive controls of hepatotoxicity and biliary canaliculi loss, respectively.
# [5] = Anxiety-like behaviors in the elevated plus maze; format: in vivo, mouse
# From the text: The EPM apparatus was made of grey polyvinyl chloride and consisted of four elevated arms. The arms (height, 60 cm; length, 37 cm; width, 6 cm; each) were arranged in a cross-like disposition, with two opposite arms being enclosed by walls and the two other arms being open. A video camera placed on the top of the maze and connected to a tracking system allowed the automatic scoring of the locomotion of the mice in the maze. The light intensity of the maze was set at 45 lux in the open arms. One mouse was placed in the center of the EPM and was then free to explore the entire maze for 5 minutes. The time spent and the number of entries into the open arms and closed arms were measured. A decrease in the percentages of visits and/or of the time spent in open arms reflects an increase in anxiety levels.
# Rimonabant was dissolved in a vehicle containing DMSO, (2%), Tween80 (2%) in injectable NaCl 0.9%. Within the same study, the effect of intraperitoneal injection of rimonabant at 10 mg/kg or of vehicle alone (10 ml/kg) was studied in the EPM in 2-month-old male C57B1/6J mice (n=10 per group). The EPM test was performed 30 minutes after rimonabant injection.
smiles,measurement,setting,value
"CC(=O)[C@@]1(C)CC[C@H]2[C@@H]3CC=C4C[C@@H](OCc5ccccc5)CC[C@]4(C)[C@H]3CC[C@@]21C [3Bn17MeP, 3β-benzyloxy, 17α-methyl-pregn-5-en-20-one]",Exploration of the familiar object (short-term sequential object recognition),Ts65Dn mice [1],explored significantly less the familiar object after 5 and 35 minutes
same,Effects on spontaneous behaviors per se,[2],no detectable effects
same,Correct responses (working memory),Ts65Dn mice [3],increased correct responses in Ts65Dn as compared to vehicle mice that reached the level of WT
same,Hepatotoxic effect (hepatocyte survival),[4],no hepatotoxic effect
same,Percentage of time spent and of visits in the open arms,"[5]; acute 30 mg/kg per os, 3 hours after administration",had no effect
same,Effect: increase in anxiety-like behaviors (acute administration),"[5]; male mice, highest dose tested 30 mg/kg",No
